In ChEMBL document CHEMBL1833847, “Identification of potent c-Src inhibitors strongly affecting the proliferation of human neuroblastoma cells” (Bioorg Med Chem Lett, 2011):
In brackets after ≈: the same amount, converted by molar mass. Each block holds one compound with its values, some of them ahead of it. Activity calls are given as the source filed them. The rule behind the calls is not given here.

Columns and labels:
[1] = biological target: T1, Tyrosine-protein kinase ABL1 (Homo sapiens, UniProt P00519); experiment: Inhibition human recombinant Abl using Abtide peptide substrate at 100 uM in presence of [gamma-32P]-ATP
[2] = biological target: T1, Tyrosine-protein kinase ABL1
Description: Inhibition human recombinant Abl using Abtide peptide substrate in presence of [gamma-32P]-ATP

[3] = biological target: Proto-oncogene tyrosine-protein kinase Src (Homo sapiens, UniProt P12931); experiment: Inhibition human recombinant cSRC using KVEKIGEGTYGVVYK peptide substrate in presence of [gamma-32P]-ATP
HS27 = experiment: Antiproliferative activity against human HS27 cells assessed as retardation in proliferation rate at 10 uM after 72 hrs by XTT assay; type: cell-based; settings: hs27, 72 h
SH-SY5Y [4] = experiment: Antiproliferative activity against human SH-SY5Y cells assessed as cell viability at 0.01 to 10 uM by XTT assay; type: functional, cell-based; settings: TDE = time-dependent effect
[5] = Metabolic stability in human liver microsomes at 50 uM at pH 7.4 using NADPH by LC-UV-MS method; type: ADME, Microsome; settings: read-out: Stability
SH-SY5Y [6] = experiment: Antiproliferative activity against human SH-SY5Y cells assessed as cell viability after 72 hrs by XTT assay
[7] = Aqueous solubility of the compound after 24 to 36 hrs by LC-MS-MS assay; type: physicochemical; settings: buffer
SH-SY5Y [8] = experiment: cells; settings: Homo sapiens, 72 h
[9] = Permeability of the compound at pH 7.4 after 5 hrs using porcine polar brain lipid by PAMPA-BBB assay; type: ADME; settings: pig; for Papp at 5 h: PAMPA, pH 7.4, read-out: permeability
[10] = biological target: Serine/threonine-protein kinase pim-1 (Homo sapiens, UniProt P11309); experiment: Inhibition human recombinant Pim1 using KKRNRLTLTV peptide substrate in presence of [gamma-32P]-ATP
[11] = biological target: T2, Receptor-type tyrosine-protein kinase FLT3 (Homo sapiens, UniProt P36888)
T2 sequence (P36888 whole entry): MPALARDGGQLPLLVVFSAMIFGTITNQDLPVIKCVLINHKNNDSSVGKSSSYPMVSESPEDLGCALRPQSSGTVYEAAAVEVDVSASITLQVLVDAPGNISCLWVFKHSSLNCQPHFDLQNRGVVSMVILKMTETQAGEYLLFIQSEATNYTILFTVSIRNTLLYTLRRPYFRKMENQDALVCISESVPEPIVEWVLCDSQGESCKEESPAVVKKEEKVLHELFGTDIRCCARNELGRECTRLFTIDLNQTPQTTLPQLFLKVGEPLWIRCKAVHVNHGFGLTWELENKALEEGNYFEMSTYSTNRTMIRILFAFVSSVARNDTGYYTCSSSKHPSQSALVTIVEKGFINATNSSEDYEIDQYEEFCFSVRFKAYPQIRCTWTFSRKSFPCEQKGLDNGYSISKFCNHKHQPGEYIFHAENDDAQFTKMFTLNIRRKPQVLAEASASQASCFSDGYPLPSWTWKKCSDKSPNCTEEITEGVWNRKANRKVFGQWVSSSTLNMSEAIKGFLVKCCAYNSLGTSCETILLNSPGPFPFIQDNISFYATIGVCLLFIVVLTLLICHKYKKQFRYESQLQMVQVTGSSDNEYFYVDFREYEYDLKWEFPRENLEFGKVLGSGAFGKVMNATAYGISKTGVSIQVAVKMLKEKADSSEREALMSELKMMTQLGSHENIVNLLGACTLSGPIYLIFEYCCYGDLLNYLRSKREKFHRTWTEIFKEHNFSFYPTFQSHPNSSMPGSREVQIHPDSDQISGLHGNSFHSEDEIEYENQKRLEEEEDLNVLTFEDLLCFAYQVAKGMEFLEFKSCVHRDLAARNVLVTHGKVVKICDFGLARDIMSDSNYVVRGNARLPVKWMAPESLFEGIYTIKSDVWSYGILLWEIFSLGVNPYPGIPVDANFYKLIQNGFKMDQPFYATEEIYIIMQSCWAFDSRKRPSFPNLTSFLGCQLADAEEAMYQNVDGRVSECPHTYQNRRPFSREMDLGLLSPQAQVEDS
Description: Inhibition human recombinant FLT3 using Poly(Ala,Glu,Lys,Tyr)peptide substrate in presence of [gamma-32P]-ATP

[12] = biological target: Tyrosine-protein kinase HCK (Homo sapiens, UniProt P08631); experiment: Inhibition human recombinant HcK using KVEKIGEGTYGVVYK peptide substrate in presence of [gamma-32P]-ATP
Focal adhesion kinase 1 = Focal adhesion kinase 1 (Homo sapiens, UniProt Q05397)
Description: Inhibition human recombinant FAK using Poly(Glu,Tyr) substrate in presence of [gamma-32P]-ATP

SH-SY5Y [13] = experiment: Antiproliferative activity against human SH-SY5Y cells assessed as growth reduction at 10 uM after 72 hrs; type: functional; design: scale not given: the % may be the effect or the level left

inhibition [1]: inactive
SMILES: CC(Cn1ncc2c(NCc3ccc(F)cc3)ncnc21)c1ccccc1 (centres undefined)

inhibition [1]: inactive
SMILES: CC(Cn1ncc2c(NCc3ccccc3)ncnc21)c1ccccc1 (centres undefined)

inhibition [1]: inactive
SMILES: Clc1cccc(Nc2ncnc3c2cnn3CCc2ccccc2)c1

Ki [10]: 6.6 µM
inhibition [1]: inactive
Ki [11]: Not Active
Ki [12]: 5 µM
Ki [3]: 0.025 µM
IC50 (SH-SY5Y [8]): 0.33 µM
Ki (Focal adhesion kinase 1): Not Active
SMILES: CSc1nc(Nc2cccc(Cl)c2)c2cnn(CC(C)c3ccccc3)c2n1 (centres undefined)
Activity (HS27): Toxic
Activity (SH-SY5Y [4]): tde
Activity (SH-SY5Y [6]): Dose-dependent effect

remaining at 50 µM [5]: 91%
Ki [3]: 0.7 µM
solubility [7]: 0.046 µg/mL (≈ 0.107 µM)
Papp at 5 h [9]: 56.6 nm/s
SMILES: CSc1nc(Nc2cccc(Cl)c2)c2cnn(CC(Cl)c3ccccc3)c2n1 (centres undefined)
Activity (SH-SY5Y [13]): 75%

inhibition [1]: inactive
SMILES: CC(Cn1ncc2c(NCc3cccc(F)c3)ncnc21)c1ccccc1 (centres undefined)

inhibition [1]: inactive
SMILES: CC(Cn1ncc2c(Nc3cccc(Cl)c3)ncnc21)c1ccccc1 (centres undefined)

inhibition [1]: inactive
SMILES: CC(Cn1ncc2c(NCc3ccccc3F)ncnc21)c1ccccc1 (centres undefined)

Further lines, the compound ahead of its results:

SMILES: CSc1nc(NCc2ccccc2)c2cnn(CC(C)c3ccccc3)c2n1 (centres undefined)
inhibition [1]: inactive

SMILES: ClC(Cn1ncc2c(NCc3ccccc3)ncnc21)c1ccccc1 (centres undefined)
Ki [2]: 0.37 µM
Ki [3]: 3 µM

SMILES: CSc1nc(Nc2cccc(Br)c2)c2cnn(CC(C)c3ccccc3)c2n1 (centres undefined)
Activity (HS27): Toxic
Activity (SH-SY5Y [4]): tde
remaining at 50 µM [5]: 95%
Activity (SH-SY5Y [6]): Dose-dependent effect
solubility [7]: < 0.01 µg/mL
IC50 (SH-SY5Y [8]): 0.8 µM
permeability ([9]; pampa, pH 7.4, 5 h): 14.8 nm/s

SMILES: CSc1nc(Nc2ccccc2)c2cnn(CC(C)c3ccccc3)c2n1 (centres undefined)
Activity (HS27): Toxic
Activity (SH-SY5Y [4]): tde
Ki [10]: 11.5 µM
inhibition [1]: inactive
Ki [11]: Not Active
Ki [12]: 3.87 µM
Ki [3]: 0.025 µM
IC50 (SH-SY5Y [8]): 0.73 µM
Ki (Focal adhesion kinase 1): Not Active

SMILES: CC(C)(C)n1nc(-c2ccc(Cl)cc2)c2c(N)ncnc21
IC50 (SH-SY5Y [8]): 6.1 µM

SMILES: CSc1nc(Nc2cccc(Cl)c2)c2cnn(CCc3ccccc3)c2n1
Activity (HS27): Toxic
Activity (SH-SY5Y [4]): tde
Ki [10]: 6.5 µM
inhibition [1]: inactive
remaining at 50 µM [5]: 99%
Ki [12]: 1.72 µM
Ki [3]: 0.09 µM
Papp at 5 h [9]: 34.3 nm/s
